Here are results for 48 compounds from patent publication EP4671247A1, “SUBSTITUTED PYRAZOLOPYRIMIDINE COMPOUND AND PHARMACEUTICAL USE THEREOF” (Japan Tobacco Inc., priority 2023, dated 2024).

Where two headings read alike, the source gives them in different places.

A word on the IC50: it is the concentration at which inhibition is half-maximal. By inhibition is commonly meant the change of the read-out against control, counted positive when it falls. High values mean a strong effect, low ones a weak effect.

The target in the assay is T1, NLRP3 inflammasome (Homo sapiens, UniProt Q96P20).
T1 construct: host or cells: THP1-Null cells (PMA-differentiated, LPS-primed, nigericin-stimulated)
T1 sequence (Q96P20 whole entry): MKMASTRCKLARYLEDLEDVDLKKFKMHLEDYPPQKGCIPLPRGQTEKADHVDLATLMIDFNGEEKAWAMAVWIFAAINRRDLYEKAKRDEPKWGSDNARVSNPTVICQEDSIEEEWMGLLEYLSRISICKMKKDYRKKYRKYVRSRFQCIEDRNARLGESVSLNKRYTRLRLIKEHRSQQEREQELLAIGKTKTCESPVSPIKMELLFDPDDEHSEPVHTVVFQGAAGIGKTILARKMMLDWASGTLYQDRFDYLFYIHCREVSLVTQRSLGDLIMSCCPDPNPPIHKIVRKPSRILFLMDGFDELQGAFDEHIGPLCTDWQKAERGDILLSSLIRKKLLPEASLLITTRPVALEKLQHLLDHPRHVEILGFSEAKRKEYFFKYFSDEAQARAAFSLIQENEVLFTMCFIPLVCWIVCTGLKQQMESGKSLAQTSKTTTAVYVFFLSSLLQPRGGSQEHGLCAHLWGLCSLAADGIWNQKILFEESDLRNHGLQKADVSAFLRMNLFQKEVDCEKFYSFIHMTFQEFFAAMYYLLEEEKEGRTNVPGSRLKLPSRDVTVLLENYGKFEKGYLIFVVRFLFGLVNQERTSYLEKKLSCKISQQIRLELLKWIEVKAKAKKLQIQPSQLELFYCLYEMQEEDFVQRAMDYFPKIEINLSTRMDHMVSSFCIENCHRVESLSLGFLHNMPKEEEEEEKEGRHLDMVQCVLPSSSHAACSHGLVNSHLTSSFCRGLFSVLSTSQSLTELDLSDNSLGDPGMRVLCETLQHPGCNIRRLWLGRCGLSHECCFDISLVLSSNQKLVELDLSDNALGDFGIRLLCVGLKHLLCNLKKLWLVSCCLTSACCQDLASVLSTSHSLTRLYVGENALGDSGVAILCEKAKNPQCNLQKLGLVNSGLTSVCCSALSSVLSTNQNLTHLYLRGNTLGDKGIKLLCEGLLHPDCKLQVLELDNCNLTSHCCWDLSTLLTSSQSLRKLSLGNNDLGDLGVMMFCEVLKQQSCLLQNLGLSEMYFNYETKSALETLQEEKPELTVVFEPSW
Briefly: Evaluation of NLRP3 inflammasome inhibitory activity (inhibition of IL-1β production in LPS/Nigericin-stimulated THP1-Null cells, AlphaLISA). It is filed as cell-based. The note with it: IL-1β production in THP1-Null cells; for IC50: PMA, 1 µg/mL Lipopolysaccharides 3 hours, Nigericin 7.5 µmol/L 1.5 hours. On the procedure:
The NLRP3 inflammasome inhibitory activity of test compounds were evaluated on the basis of the inhibitory activity of the IL-1β production in THP1-Null cells (Product Number: thp-null, InvivoGen).
The supernatant of the culture was removed, and thereto was added media for assay (25 µL/well) containing 1 µg/mL Lipopolysaccharides (Product Number: L2654, Sigma-Aldrich (registered trademark)). […] The supernatant of the culture was removed. […] A solution containing a test compound (20 µL/well) was added to test compound-setting wells. […] The supernatant of the culture was cryonically stored (set at -20°C) until measurement of IL-1β.
The amount of IL-1β in the culture supernatant was quantitated with AlphaLISA (registered trademark) Human IL-1β Detection Kit (Product Number: AL220C, Perkin Elmer). Fluorescence intensity was measured with a microplate reader EnSpier (Model number: 2300-00J, Perkin Elmer) or EnSight (Model number: HH34000000, Perkin Elmer) according to procedure manuals attached thereto. Inhibition rates of the test compound-setting wells were calculated on the basis of 100% for the blank-setting wells and 0% for the control-setting wells.

Regarding `Cc1cc(OC(F)F)cc(C)c1-n1cc2c(=O)[nH]c(C3=CCOCC3)nc2n1` [Example 135], for the setting “read-out: IC50”, the IC50 was 33 nM.

As for `COCc1cc(C2CC2)ccc1-n1cc2c(=O)[nH]c(C3CC3)nc2n1` [Example 25], under “read-out: IC50”, the IC50 turned out to be 44 nM.

On to `Cc1cc(C2CC2)ccc1-n1cc2c(=O)[nH]c(C3CC3)nc2n1` [Example 24], for which, for the setting “read-out: IC50”, the IC50 was determined as 47 nM.

On to `Cc1cc(C2CC2)cc(C)c1-n1cc2c(=O)[nH]c(C3(F)CC3)nc2n1` [Example 48], for which, where the note is “read-out: IC50”, the IC50 was found to be 23 nM.

For the compound `Cc1cc(Br)cc(C)c1-n1cc2c(=O)[nH]c(C3=CCOCC3)nc2n1` [Example 102], the IC50 (read-out: IC50) came out at 8 nM.

Regarding `Cc1ccccc1-n1cc2c(=O)[nH]c(C3=CCCC3)nc2n1` [Example 2], the IC50 (read-out: IC50) is 1300 nM.

Consider `Cc1cc(OC(F)F)cc(C)c1-n1cc2c(=O)[nH]c(CCO)nc2n1` [Example 209], for which the IC50 (read-out: IC50) was 25 nM.

As for `Cc1cc(C2CC2)cc(C)c1-n1cc2c(=O)[nH]c(C(O)C(F)F)nc2n1` (single isomer, unassigned) [Example 169], the IC50 came to 26 nM.

Turning to `Cc1cc(C2CC2)cc(C)c1-n1cc2c(=O)[nH]c(COC(F)F)nc2n1` [Example 145], where the note is “read-out: IC50”, the IC50 is 13 nM.

Take `COc1nc(C)nc2nn(-c3ccc(C)cc3C)cc12` [Example 12]: under “test compound at 24 µM”, at 24 µM the inhibition was 26%.

In the case of `CC(=O)c1nc2nn(-c3c(C)cc(C(C)(F)F)cc3C)cc2c(=O)[nH]1` [Example 206], the IC50 (read-out: IC50) stood at 360 nM.

As for `Cc1ccc(-n2cc3c(=O)[nH]c(C4CCCCO4)nc3n2)c(C)c1` (racemic) [Example 40], the half-maximal inhibitory concentration (IC50) (read-out: IC50) came to 430 nM.

For `O=c1[nH]c(C2CC2)nc2nn(-c3ccc(C4CC4)cc3C(F)(F)F)cc12` [Example 198], where the note is “read-out: IC50”, the IC50 came to 11 nM.

`Cc1cc(C2CC2)cc(C)c1-n1nc2nc(C3CC3)[nH]c(=O)c2c1CF` [Example 84]: the IC50 (read-out: IC50) worked out at 15 nM.

In the case of `Cc1cc(C2CC2)cc(C)c1-n1cc2c(=O)[nH]c(CCO)nc2n1` [Example 106], the IC50 (read-out: IC50) was 28 nM.

The compound `Cc1cc(C(C)(F)F)cc(C)c1-n1cc2c(=O)[nH]c(C3(F)CCOC3)nc2n1` (single isomer, unassigned) [Example 130] showed an IC50 of 240 nM.

As to `Cc1cc(C(C)(F)F)cc(C)c1-n1cc2c(=O)[nH]c([C@@H]3C[C@H]3F)nc2n1` (single isomer, unassigned) [Example 146], the IC50 (read-out: IC50) came out at 15 nM.

`Cc1cc(Br)cc(C)c1-n1cc2c(=O)[nH]c(C(C)O)nc2n1` (racemic) [Example 137]: under “read-out: IC50”, the IC50 stood at 24 nM.

For the compound `COCC(O)Cc1nc2nn(-c3c(C)cc(C4CC4)cc3C)cc2c(=O)[nH]1` (racemic) [Example 143], for the setting “read-out: IC50”, the IC50 is 86 nM.

As for `Cc1cc(Br)cc(C)c1-n1cc2c(=O)[nH]c(C(O)C3CC3)nc2n1` (racemic) [Example 140], the IC50 (read-out: IC50) was determined as 46 nM.

`Cc1cc(OC(F)F)cc(C)c1-n1cc2c(=O)[nH]c(C3CCOCC3F)nc2n1` (single isomer, unassigned) [Example 176] had an IC50 of 75 nM.

As to `Cc1cc(C2CC2)cc(C)c1-n1cc2c(=O)[nH]c(C3CCOCCO3)nc2n1` (racemic) [Example 163, (RS)-2-(4-cyclopropyl-2,6-dimethylphenyl)-6-(1,4-dioxepan-5-yl)-2,5-dihydro-4H-pyrazolo[3,4-d]pyrimidin-4-one], the IC50 (read-out: IC50) is 23 nM.

In the case of `Cc1cc(Br)cc(C)c1-n1cc2c(=O)[nH]c(C3CC(F)(F)CCO3)nc2n1` (racemic) [Example 184], under “read-out: IC50”, the IC50 was 51 nM.

On to `Cc1cc(C2CC2)cc(C)c1-n1cc2c(=O)[nH]c(C3CC3)nc2n1` [Example 21], for which the IC50 (read-out: IC50) was 12 nM.

With `COc1cc(C2CC2)ccc1-n1cc2c(=O)[nH]c(C3CC3)nc2n1` [Example 26], under “read-out: IC50”, the IC50 amounted to 76 nM.

Regarding `Cc1cc(OC(F)F)cc(C)c1-n1cc2c(=O)[nH]c(COC(F)F)nc2n1` [Example 148], the IC50 (read-out: IC50) worked out at 61 nM.

`Cc1cc(C2CC2)cc(C)c1-n1cc2c(=O)[nH]c(C3(F)CCC3)nc2n1` [Example 69]: the IC50 (read-out: IC50) is 67 nM.

As for `Cc1cc(C2CC2)cc(C)c1-n1cc2c(=O)[nH]c(C#N)nc2n1` [Example 199], the IC50 (read-out: IC50) is 240 nM.

`Cc1cc(OC(F)F)cc(C)c1-n1cc2c(=O)[nH]c(C3CCOCC3F)nc2n1` (single isomer, unassigned) [Example 177] returned an IC50 of 24 nM.

Take `Cc1cc(C2CC2)cc(C)c1-n1cc2c(=O)[nH]c(C(C)F)nc2n1` (racemic) [Example 128]: the IC50 (read-out: IC50) turned out to be 44 nM.

As to `Cc1ccc(-n2cc3c(=O)[nH]c(C4CCS(=O)(=O)C4)nc3n2)c(C)c1` (racemic) [Example 32], the IC50 (read-out: IC50) was found to be 270 nM.

Consider `Cc1cc(C(C)(F)F)cc(C)c1-n1cc2c(=O)[nH]c(COC(F)F)nc2n1` [Example 202], for which, for the setting “read-out: IC50”, the IC50 is 40 nM.

Turning to `Cc1cc(C2CC2)cc(C)c1-n1nc2nc(C3CC3)[nH]c(=O)c2c1CO` [Example 83, 6-cyclopropyl-2-(4-cyclopropyl-2,6-dimethylphenyl)-3-(hydroxymethyl)-2,5-dihydro-4H-pyrazolo[3,4-d]pyrimidin-4-one], the IC50 (read-out: IC50) turned out to be 24 nM.

For `Cc1cc(C(C)(C)F)cc(C)c1-n1cc2c(=O)[nH]c(C3(F)CCOCC3)nc2n1` [Example 109], for the setting “read-out: IC50”, the IC50 was determined as 17 nM.

Regarding `Cc1cc(C(C)(F)F)cc(C)c1-n1cc2c(=O)[nH]c([C@H]3C[C@@H]3F)nc2n1` (racemic) [Example 142, 2-[4-(1,1-difluoroethyl)-2,6-dimethylphenyl]-6-[(1RS,2SR)-2-fluorocyclopropyl]-2,5-dihydro-4H-pyrazolo[3,4-d]pyrimidin-4-one], where the note is “read-out: IC50”, the IC50 amounted to 17 nM.

Take `Cc1nc2nn(-c3c(C)cc(C4CC4)cc3C)cc2c(=O)[nH]1` [Example 19]: the IC50 (read-out: IC50) turned out to be 170 nM.

As for `Cc1cc(C2CC2)cc(F)c1-n1cc2c(=O)[nH]c(C3(F)CCOCC3)nc2n1` [Example 110], the IC50 (read-out: IC50) is 19 nM.

For the compound `Cc1cc(C2CC2)cc(C)c1-n1cc2c(=O)[nH]c(CCF)nc2n1` [Example 101], the IC50 (read-out: IC50) was 24 nM.

Consider `COCc1cc(C2CC2)cc(C)c1-n1cc2c(=O)[nH]c(C3CC3)nc2n1` [Example 58], for which, for the setting “read-out: IC50”, the IC50 was found to be 36 nM.

For `CCNC(=O)c1nc2nn(-c3c(C)cc(C4CC4)cc3C)cc2c(=O)[nH]1` [Example 205], the IC50 (read-out: IC50) was 11 nM.

For `COCc1nc2nn(-c3c(C)cc(C4CC4)cc3C)cc2c(=O)[nH]1` [Example 43], the IC50 (read-out: IC50) is 42 nM.

On to `Cc1cc(Br)cc(C)c1-n1cc2c(=O)[nH]c([C@H]3CCOCCO3)nc2n1` [Example 185], for which the half-inhibitory concentration (IC50) (read-out: IC50) came out at 23 nM.

As for `Cc1cc(OC(F)F)cc(C)c1-n1cc2c(=O)[nH]c(C3CCN(C)CC3)nc2n1` [Example 90], the IC50 (read-out: IC50) was 68 nM.

Compound `Cc1cc(C(C)(F)F)cc(C)c1-n1cc2c(=O)[nH]c(C3CCOCCO3)nc2n1` (single isomer, unassigned) [Example 188] had an IC50 of 190 nM.

With `Cc1cc(C2CC2)cc(C)c1-n1cc2c(=O)[nH]c(C3(C)COC3)nc2n1` [Example 44], the IC50 (read-out: IC50) was determined as 47 nM.

For `Cc1cc(OC(F)F)cc(C)c1-n1cc2c(=O)[nH]c(C3CCOCCO3)nc2n1` (single isomer, unassigned) [Example 194], the IC50 came to 100 nM.

As for `Cc1cc(Br)cc(C)c1-n1cc2c(=O)[nH]c(COC3CCCOC3)nc2n1` (racemic) [Example 56], the IC50 (read-out: IC50) amounted to 350 nM.

For `Cc1cc(C2CC2)cc(C)c1-n1cc2c(=O)[nH]c(COC3CCCOC3)nc2n1` (racemic) [Example 57], the IC50 (read-out: IC50) was found to be 340 nM.
